Several values for one entry are separate records, joined by “and”; a condition that tells them apart may be missing. Equal values may be shown once.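 Where inhibition never reached the appropriate level, the endpoint shown equals the highest concentration tested. Otherwise, values were interpolated linearly from a five-concentration, 48-hour dose response in 96-well plates. At the GI50, growth is halved. Definition used: TGI = concentration required for complete inhibition of growth.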
Columns and labels:
Assay in all cases: DTP human tumour cell line panel, 48 h
[1] = tested on: 786-0 renal
[2] = tested on: HCT-15 colon
[3] = tested on: M14 melanoma
[4] = tested on: MCF7 breast
[5] = tested on: MOLT-4 leukemia
[6] = tested on: NCI-H226 lung
[7] = tested on: SF-268 CNS
[8] = tested on: SF-539 CNS
[9] = tested on: TK-10 renal
[10] = tested on: CAKI-1 renal

Structure (SMILES)	GI50 [1]	TGI [1]	GI50 [2]	TGI [2]	GI50 [3]	TGI [3]	GI50 [4]	TGI [4]	GI50 [5]	TGI [5]	GI50 [6]	TGI [6]	GI50 [7]	TGI [7]	GI50 [8]	TGI [8]	GI50 [9]	TGI [9]	TGI [10]	GI50 [10]
COc1ccc(/C(COc2c(-c3ccccc3)oc3ccccc3c2=O)=N\O)cc1	40.6 µM	> 50 µM	19.5 µM	> 50 µM	28.3 µM	> 50 µM	10.8 µM	29.5 µM	22.9 µM	> 50 µM	20.8 µM	> 50 µM	13.4 µM	41 µM	13.5 µM	27.9 µM	10.2 µM	26.2 µM	–	–
COc1ccc(-c2cc(=O)c3c(OC)c(OC)c(OC)cc3o2)cc1	–	> 100 µM	–	> 100 µM	–	> 100 µM	–	> 100 µM	–	> 100 µM	–	> 100 µM	–	> 100 µM	–	> 100 µM	–	> 100 µM	> 100 µM	–
CCc1ccc(/C=C\c2cc(OC)c(OC)c(OC)c2)cc1	0.0353 µM	14 µM	0.0327 µM	–	0.0168 µM	19.9 µM	–	–	–	–	–	0.0792 µM	0.06 µM	46.9 µM	0.0163 µM	0.0443 µM and 0.0546 µM	–	–	> 100 µM	1.02 µM
O=C(O)CNS(=O)(=O)c1ccc(NCc2ccccc2)cc1	–	> 100 µM	–	> 100 µM	–	> 100 µM	–	–	–	> 100 µM	–	> 100 µM	–	> 100 µM	–	> 100 µM	–	> 100 µM	> 100 µM	–
O=C(c1ccccc1)c1nnc(C(=O)c2ccccc2)nn1	–	> 344 µM	–	> 344 µM	–	> 344 µM	–	–	–	> 344 µM	–	> 344 µM	–	> 344 µM	–	> 344 µM	–	> 344 µM	> 344 µM	–
CC(=O)CNC(=O)OC(C)(C)C	–	> 100 µM	–	–	–	> 100 µM	–	–	–	> 100 µM	–	> 100 µM	–	> 100 µM	–	> 100 µM	–	> 100 µM	> 100 µM	–
Oc1c(CN2CCC(N3CCCCC3)CC2)cc(Cc2cc(CN3CCC(N4CCCCC4)CC3)c(O)c3ncccc23)c2cccnc12	1.53 µM	5.96 µM	0.797 µM	14.6 µM	1.11 µM	2.75 µM	0.865 µM	10.3 µM	0.3 µM	6.22 µM	1.49 µM	4.53 µM	0.537 µM	13.8 µM	–	–	1.14 µM	10.3 µM	10.2 µM	0.941 µM
Brc1cccc(C=NC23CC4CC(CC(C4)C2)C3)c1	–	> 100 µM	–	> 100 µM	–	> 100 µM	–	–	–	> 100 µM	–	> 100 µM	–	> 100 µM	–	> 100 µM	–	> 100 µM	> 100 µM	–
Oc1ccc(CN2CCC(N3CCCCC3)CC2)c2cccnc12	19.3 µM	> 100 µM	5.83 µM	> 100 µM	5.75 µM	> 100 µM	21.5 µM	> 100 µM	19.9 µM	> 100 µM	29 µM	82.2 µM	7.06 µM	> 100 µM	–	–	78.2 µM	> 100 µM	> 100 µM	33.8 µM
O=C1NC2OC(CO)C(O)C(O1)C2O (stereo unspecified)	–	> 100 µM	–	> 100 µM	–	> 100 µM	–	–	–	> 100 µM	–	> 100 µM	–	> 100 µM	–	> 100 µM	–	> 100 µM	> 100 µM	–
CCC(C)c1c(Cl)nc(Cl)nc1Cl (stereo unspecified)	–	30 µM	–	35.3 µM	–	3.43 µM	–	22 µM	–	> 100 µM	–	7.75 µM	–	> 100 µM	–	58.8 µM	–	41.3 µM	–	–
[Cl-].[Dy+3].[O-]/N=C(\c1ccccc1)c1ccccn1.[O-]/N=C(\c1ccccc1)c1ccccn1.[O-]/N=C(\c1ccccc1)c1ccccn1	32.2 µM	96.6 µM	37 µM	> 100 µM	22.1 µM	43.1 µM	–	–	8.47 µM	78.7 µM	17.3 µM	58.4 µM	30.2 µM	98.9 µM	25.5 µM	64.3 µM	46.3 µM	> 100 µM	> 100 µM	31 µM
COc1ccc(C2=CC3CCC2C3)cc1 (stereo unspecified)	–	> 100 µM	–	> 100 µM	–	> 100 µM	–	–	–	> 100 µM	–	–	–	> 100 µM	–	> 100 µM	–	> 100 µM	> 100 µM	–
O=c1c2cc([N+](=O)[O-])ccc2sc2ccsc12	–	> 100 µM	–	> 100 µM	–	> 100 µM	–	–	–	> 100 µM	–	> 100 µM	–	> 100 µM	–	> 100 µM	–	–	–	–
OCC(O)CC[CH2][Sn]([Br])([c]1ccccc1)[c]1ccccc1 (stereo unspecified)	> 100 µM	> 100 µM	> 100 µM	> 100 µM	> 100 µM	> 100 µM	–	–	–	–	> 100 µM	> 100 µM	–	–	> 100 µM	> 100 µM	> 100 µM	> 100 µM	> 100 µM	> 100 µM
COC(=O)/C=C/c1cc(OC)c(OC)c(OC)c1	–	> 100 µM	–	> 100 µM	–	> 100 µM	–	–	–	> 100 µM	–	> 100 µM	–	> 100 µM	–	> 100 µM	–	> 100 µM	> 100 µM	–
O=C1/C(=C/c2ccccc2)CNC/C1=C\c1ccccc1	–	2.93 µM	–	2.76 µM	–	3.56 µM	–	–	–	3.36 µM	–	6.18 µM	–	9.34 µM	–	3.46 µM	–	7.61 µM	17.6 µM	–
N#Cc1cc([N+](=O)[O-])ccc1NC(=O)C(=O)Nc1n[nH]c(N)n1	–	> 100 µM	–	> 100 µM	–	> 100 µM	–	–	–	> 100 µM	–	> 100 µM	–	> 100 µM	–	> 100 µM	–	> 100 µM	> 100 µM	–
C=CCOCCCCC(C(C)=O)C(=O)OC (stereo unspecified)	–	> 100 µM	–	> 100 µM	–	> 100 µM	–	–	–	> 100 µM	–	> 100 µM	–	> 100 µM	–	> 100 µM	–	> 100 µM	> 100 µM	–
CC(C)(C)C1C=C(Sc2ccccc2)C(=O)O1 (stereo unspecified)	–	> 100 µM	–	> 100 µM	–	> 100 µM	–	–	–	> 100 µM	–	> 100 µM	–	> 100 µM	–	> 100 µM	–	> 100 µM	> 100 µM	–

From PubChem BioAssay (NCI)
